According to ChEMBL document CHEMBL1909046, “DrugMatrix in vitro pharmacology data”:

Assays:
Melanocortin receptor 4 = Melanocortin receptor 4 (Homo sapiens, UniProt P32245); assay type: cell membranes, Membrane; details: hek293; also: in other assays of this panel Not Active means under 50% inhibition at 10 µM
Vasopressin V1a receptor = Vasopressin V1a receptor (Homo sapiens, UniProt P37288); assay type: cell membranes, Membrane; details: hek293; also: in other assays of this panel Not Active means under 50% inhibition at 10 µM
[1] = DRUGMATRIX: Sigma2 radioligand binding (ligand: [3H] Ifenprodil); assay type: cell membranes, Rattus norvegicus, Wistar, Brain, Membrane; details: Not Active = under 50% inhibition at 10 µM
[2] = DRUGMATRIX: Interleukin IL-1 radioligand binding (ligand: [125I] interleukin 1beta); assay type: cell membranes, Membrane; details: nih3t3; Not Active = under 50% inhibition at 10 µM
Cytochrome P450 3A4 = Cytochrome P450 3A4 (Homo sapiens, UniProt P08684); details: bti-tn-5b1-4; also: in other assays of this panel Not Active means under 50% inhibition at 10 µM
[3] = molecular target: T1, 5-hydroxytryptamine receptor 2C (Homo sapiens, UniProt P28335); experiment: DRUGMATRIX: Serotonin (5-Hydroxytryptamine) 5-HT2C radioligand binding (ligand: [3H] Mesulergine); assay type: cell membranes, CHO-K1, Membrane; details: cho-k1; Not Active = under 50% inhibition at 10 µM
T1 sequence (P28335 whole entry): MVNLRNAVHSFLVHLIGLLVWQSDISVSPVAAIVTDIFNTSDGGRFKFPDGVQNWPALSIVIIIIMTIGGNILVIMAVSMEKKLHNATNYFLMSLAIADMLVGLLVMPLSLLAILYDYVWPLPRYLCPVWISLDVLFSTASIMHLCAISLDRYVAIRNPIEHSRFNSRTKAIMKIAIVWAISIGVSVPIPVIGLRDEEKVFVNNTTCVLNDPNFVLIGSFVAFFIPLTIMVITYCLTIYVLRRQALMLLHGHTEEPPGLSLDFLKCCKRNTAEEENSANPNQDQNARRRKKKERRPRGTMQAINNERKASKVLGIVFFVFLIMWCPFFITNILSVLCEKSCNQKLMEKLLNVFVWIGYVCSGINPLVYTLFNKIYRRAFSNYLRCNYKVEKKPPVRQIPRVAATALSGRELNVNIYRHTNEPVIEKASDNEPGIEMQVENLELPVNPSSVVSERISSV

Estrogen receptor = molecular target: T2, Estrogen receptor (Homo sapiens, UniProt P03372); details: sf9; also: in other assays of this panel Not Active means under 50% inhibition at 10 µM
T2 sequence (P03372 whole entry): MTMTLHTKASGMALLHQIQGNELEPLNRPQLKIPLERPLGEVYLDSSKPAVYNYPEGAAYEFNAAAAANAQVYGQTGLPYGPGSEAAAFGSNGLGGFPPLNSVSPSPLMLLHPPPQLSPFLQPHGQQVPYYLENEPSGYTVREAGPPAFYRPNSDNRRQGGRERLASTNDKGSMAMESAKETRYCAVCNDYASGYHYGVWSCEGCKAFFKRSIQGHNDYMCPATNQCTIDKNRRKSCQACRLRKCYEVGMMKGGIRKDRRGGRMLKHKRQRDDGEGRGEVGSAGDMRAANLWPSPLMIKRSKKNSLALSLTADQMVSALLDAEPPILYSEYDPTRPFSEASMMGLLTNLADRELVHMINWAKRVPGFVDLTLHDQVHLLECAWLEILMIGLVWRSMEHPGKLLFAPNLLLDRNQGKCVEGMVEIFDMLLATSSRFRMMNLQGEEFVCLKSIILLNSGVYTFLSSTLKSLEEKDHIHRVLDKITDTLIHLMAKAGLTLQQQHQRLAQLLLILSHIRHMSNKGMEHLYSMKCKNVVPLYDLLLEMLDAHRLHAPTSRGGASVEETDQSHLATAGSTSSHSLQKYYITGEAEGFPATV

[4] = DRUGMATRIX: Potassium Channel [KATP] radioligand binding (ligand: [3H] Glyburide); assay type: cell membranes, Membrane; details: hit-t15; Not Active = under 50% inhibition at 10 µM
[5] = molecular target: Mitogen-activated protein kinase 3 (Homo sapiens, UniProt P27361); experiment: DRUGMATRIX: Protein Serine/Threonine Kinase, ERK1 enzyme inhibition (substrate: Myelin Basic Protein); set-up: species or system Escherichia coli; details: Not Active = under 50% inhibition at 10 µM
[6] = molecular target: Kappa-type opioid receptor (Homo sapiens, UniProt P41145); experiment: DRUGMATRIX: Opiate kappa (OP2, KOP) radioligand binding (ligand: [3H] Diprenorphine); assay type: cell membranes, HEK293, Membrane; details: hek293; Not Active = under 50% inhibition at 10 µM
[7] = molecular target: T3, Cholecystokinin receptor type A (Homo sapiens, UniProt P32238); assay type: cell membranes, Membrane; details: 1321-n1; also: in other assays of this panel Not Active means under 50% inhibition at 10 µM
T3 sequence (P32238 whole entry): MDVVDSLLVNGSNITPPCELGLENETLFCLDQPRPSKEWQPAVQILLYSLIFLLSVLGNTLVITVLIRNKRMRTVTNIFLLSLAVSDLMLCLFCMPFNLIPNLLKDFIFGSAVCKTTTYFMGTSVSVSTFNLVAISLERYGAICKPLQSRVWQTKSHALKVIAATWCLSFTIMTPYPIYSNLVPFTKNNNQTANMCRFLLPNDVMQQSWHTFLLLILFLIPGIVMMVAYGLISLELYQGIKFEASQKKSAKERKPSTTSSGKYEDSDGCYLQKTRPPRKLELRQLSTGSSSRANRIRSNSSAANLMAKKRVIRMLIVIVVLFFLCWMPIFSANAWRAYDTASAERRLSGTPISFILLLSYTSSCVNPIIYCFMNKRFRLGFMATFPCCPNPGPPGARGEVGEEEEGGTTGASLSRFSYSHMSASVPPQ

[8] = DRUGMATRIX: Calcium Channel Type L, Phenylalkylamine radioligand binding (ligand: [3H] (-)-Desmethoxyverapamil (D-888)); assay type: cell membranes, Rattus norvegicus, Wistar, Brain, Membrane; details: Not Active = under 50% inhibition at 10 µM
[9] = molecular target: T4, Cysteinyl leukotriene receptor 1 (Homo sapiens, UniProt Q9Y271); assay type: cell membranes, CHO-K1, Membrane; details: cho-k1; also: in other assays of this panel Not Active means under 50% inhibition at 10 µM
T4 sequence (Q9Y271 whole entry): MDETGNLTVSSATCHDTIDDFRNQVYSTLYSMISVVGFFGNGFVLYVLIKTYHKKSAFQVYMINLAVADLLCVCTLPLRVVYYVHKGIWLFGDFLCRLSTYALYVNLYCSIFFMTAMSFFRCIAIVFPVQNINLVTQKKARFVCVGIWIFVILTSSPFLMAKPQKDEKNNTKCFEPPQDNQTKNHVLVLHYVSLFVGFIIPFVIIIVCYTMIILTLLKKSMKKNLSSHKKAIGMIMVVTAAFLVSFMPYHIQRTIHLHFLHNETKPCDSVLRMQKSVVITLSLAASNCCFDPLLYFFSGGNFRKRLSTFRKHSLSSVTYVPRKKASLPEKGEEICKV

[10] = molecular target: Matrix metalloproteinase-9 (Homo sapiens, UniProt P14780); assay type: cell-based
Chain of Matrix metalloproteinase-9 (P14780 whole entry): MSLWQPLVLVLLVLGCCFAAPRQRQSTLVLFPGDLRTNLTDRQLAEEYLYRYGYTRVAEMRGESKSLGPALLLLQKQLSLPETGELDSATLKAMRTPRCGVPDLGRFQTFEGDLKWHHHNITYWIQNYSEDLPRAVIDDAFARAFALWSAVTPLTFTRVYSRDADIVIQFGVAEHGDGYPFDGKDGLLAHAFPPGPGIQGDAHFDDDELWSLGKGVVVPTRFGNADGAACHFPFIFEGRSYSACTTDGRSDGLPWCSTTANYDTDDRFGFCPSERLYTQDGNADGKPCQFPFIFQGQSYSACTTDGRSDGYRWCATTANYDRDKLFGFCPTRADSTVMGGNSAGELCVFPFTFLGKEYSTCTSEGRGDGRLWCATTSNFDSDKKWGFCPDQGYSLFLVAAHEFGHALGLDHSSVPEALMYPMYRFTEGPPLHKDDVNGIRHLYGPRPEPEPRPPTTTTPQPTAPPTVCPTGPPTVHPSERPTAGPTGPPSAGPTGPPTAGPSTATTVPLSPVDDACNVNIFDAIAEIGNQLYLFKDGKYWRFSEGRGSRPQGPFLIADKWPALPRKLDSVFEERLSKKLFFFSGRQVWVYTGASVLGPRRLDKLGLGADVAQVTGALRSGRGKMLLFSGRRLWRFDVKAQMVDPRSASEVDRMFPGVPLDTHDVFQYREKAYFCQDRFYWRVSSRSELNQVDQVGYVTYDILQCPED

Chain of Kappa-type opioid receptor (P41145 whole entry): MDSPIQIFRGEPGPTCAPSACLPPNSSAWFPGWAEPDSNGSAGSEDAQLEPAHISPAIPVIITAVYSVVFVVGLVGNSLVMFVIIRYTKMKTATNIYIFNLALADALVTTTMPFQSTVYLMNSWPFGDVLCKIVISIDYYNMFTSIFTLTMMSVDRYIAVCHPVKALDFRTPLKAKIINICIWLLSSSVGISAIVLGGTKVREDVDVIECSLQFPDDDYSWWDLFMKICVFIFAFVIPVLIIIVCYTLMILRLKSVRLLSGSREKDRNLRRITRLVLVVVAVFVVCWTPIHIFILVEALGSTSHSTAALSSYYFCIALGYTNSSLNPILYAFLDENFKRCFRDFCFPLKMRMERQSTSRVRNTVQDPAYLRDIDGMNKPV
Chain of Melanocortin receptor 4 (P32245 whole entry): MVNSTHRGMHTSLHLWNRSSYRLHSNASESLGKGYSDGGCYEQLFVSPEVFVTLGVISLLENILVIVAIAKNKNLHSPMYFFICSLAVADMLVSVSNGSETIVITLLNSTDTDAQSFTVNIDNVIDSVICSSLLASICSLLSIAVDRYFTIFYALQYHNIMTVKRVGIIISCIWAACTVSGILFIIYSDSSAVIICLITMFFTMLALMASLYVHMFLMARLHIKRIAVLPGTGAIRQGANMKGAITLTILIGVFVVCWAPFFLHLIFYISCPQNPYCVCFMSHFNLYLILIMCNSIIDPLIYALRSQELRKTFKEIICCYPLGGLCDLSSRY
Chain of Cytochrome P450 3A4 (P08684 whole entry): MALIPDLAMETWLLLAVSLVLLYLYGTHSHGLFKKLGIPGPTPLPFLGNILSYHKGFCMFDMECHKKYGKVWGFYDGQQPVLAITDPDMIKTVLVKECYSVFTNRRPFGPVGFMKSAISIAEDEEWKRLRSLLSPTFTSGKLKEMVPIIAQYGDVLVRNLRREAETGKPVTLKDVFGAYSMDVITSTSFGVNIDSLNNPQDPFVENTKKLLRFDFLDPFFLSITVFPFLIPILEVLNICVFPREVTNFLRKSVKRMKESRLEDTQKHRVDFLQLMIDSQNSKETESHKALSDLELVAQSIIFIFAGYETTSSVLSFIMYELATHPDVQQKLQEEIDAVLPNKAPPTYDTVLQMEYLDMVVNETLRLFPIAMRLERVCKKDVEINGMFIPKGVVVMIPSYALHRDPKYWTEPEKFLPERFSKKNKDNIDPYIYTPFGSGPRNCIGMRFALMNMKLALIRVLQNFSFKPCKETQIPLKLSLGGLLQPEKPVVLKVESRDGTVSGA
Chain of Vasopressin V1a receptor (P37288 whole entry): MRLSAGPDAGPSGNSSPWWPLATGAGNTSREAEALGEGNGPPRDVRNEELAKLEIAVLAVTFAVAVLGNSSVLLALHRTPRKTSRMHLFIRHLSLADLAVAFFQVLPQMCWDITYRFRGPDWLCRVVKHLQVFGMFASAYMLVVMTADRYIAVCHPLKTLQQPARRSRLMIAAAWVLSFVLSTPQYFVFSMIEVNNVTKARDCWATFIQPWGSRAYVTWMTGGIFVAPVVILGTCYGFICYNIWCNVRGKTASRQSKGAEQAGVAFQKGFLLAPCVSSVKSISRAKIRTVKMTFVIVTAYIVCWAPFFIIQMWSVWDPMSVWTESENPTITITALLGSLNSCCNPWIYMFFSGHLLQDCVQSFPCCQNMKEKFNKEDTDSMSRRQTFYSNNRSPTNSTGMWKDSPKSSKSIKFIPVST
Chain of Mitogen-activated protein kinase 3 (P27361 whole entry): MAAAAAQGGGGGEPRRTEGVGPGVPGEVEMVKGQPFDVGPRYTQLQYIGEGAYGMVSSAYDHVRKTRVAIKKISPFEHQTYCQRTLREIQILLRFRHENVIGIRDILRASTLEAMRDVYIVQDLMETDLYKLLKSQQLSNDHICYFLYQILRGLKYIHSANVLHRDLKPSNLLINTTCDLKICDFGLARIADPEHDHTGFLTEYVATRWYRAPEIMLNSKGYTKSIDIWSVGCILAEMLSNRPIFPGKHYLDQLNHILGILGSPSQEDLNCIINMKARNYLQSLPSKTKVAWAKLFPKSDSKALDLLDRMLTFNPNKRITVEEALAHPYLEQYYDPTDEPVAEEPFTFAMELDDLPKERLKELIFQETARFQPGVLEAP

COc1ccc2cc(CC(=O)O)ccc2c1
Not Active: IC50 (Melanocortin receptor 4) | IC50 (Vasopressin V1a receptor) | IC50 [1] | Ki [1] | IC50 [2] | Ki [2] | IC50 (Cytochrome P450 3A4) | Ki (Cytochrome P450 3A4) | IC50 [3] | IC50 (Estrogen receptor) | IC50 [4] | Ki [4] | IC50 [5] | IC50 [6] | IC50 [7] | IC50 [8] | Ki [8] | IC50 [9] | IC50 [10]

CCCCOC(=O)c1ccc(N)cc1 [BUTAMBEN]
Not Active: IC50 (Melanocortin receptor 4) | IC50 (Vasopressin V1a receptor) | IC50 [1] | Ki [1] | IC50 [2] | Ki [2] | IC50 [3] | IC50 (Estrogen receptor) | IC50 [4] | Ki [4] | IC50 [5] | IC50 [6] | IC50 [7] | IC50 [8] | Ki [8] | IC50 [9] | IC50 [10]

O=C(O)c1cn(C2CC2)c2cc(N3CCNCC3)c(F)cc2c1=O [CIPROFLOXACIN]
Not Active: IC50 (Melanocortin receptor 4) | IC50 (Vasopressin V1a receptor) | IC50 [1] | Ki [1] | IC50 [2] | Ki [2] | IC50 [3] | IC50 (Estrogen receptor) | IC50 [4] | Ki [4] | IC50 [5] | IC50 [6] | IC50 [7] | IC50 [8] | Ki [8] | IC50 [9] | IC50 [10]

CN(C)CCCC1(c2ccc(F)cc2)OCc2cc(C#N)ccc21 (stereo unspecified) [CITALOPRAM]
Not Active: IC50 (Melanocortin receptor 4) | IC50 (Vasopressin V1a receptor) | IC50 [1] | Ki [1] | IC50 [2] | Ki [2] | IC50 (Cytochrome P450 3A4) | Ki (Cytochrome P450 3A4) | IC50 (Estrogen receptor) | IC50 [4] | Ki [4] | IC50 [5] | IC50 [6] | IC50 [7] | IC50 [9] | IC50 [10]
0.996 µM: Ki ([8]; read-out: Ki)
1.02 µM: IC50 ([8]; read-out: IC50)

COC(=O)[C@H](c1ccccc1Cl)N1CCc2sccc2C1 [CLOPIDOGREL]
Not Active: IC50 (Melanocortin receptor 4) | IC50 (Vasopressin V1a receptor) | IC50 [1] | Ki [1] | IC50 [2] | Ki [2] | IC50 [3] | IC50 (Estrogen receptor) | IC50 [4] | Ki [4] | IC50 [5] | IC50 [6] | IC50 [7] | IC50 [8] | Ki [8] | IC50 [9] | IC50 [10]

O=C1OCCN1/N=C/c1ccc([N+](=O)[O-])o1 [FURAZOLIDONE]
Not Active: IC50 (Melanocortin receptor 4) | IC50 (Vasopressin V1a receptor) | IC50 [1] | Ki [1] | IC50 [2] | Ki [2] | IC50 [3] | IC50 (Estrogen receptor) | IC50 [4] | Ki [4] | IC50 [5] | IC50 [6] | IC50 [7] | IC50 [8] | Ki [8] | IC50 [9] | IC50 [10]

NCC(=O)O [GLYCINE]
Not Active: IC50 (Melanocortin receptor 4) | IC50 (Vasopressin V1a receptor) | IC50 [1] | Ki [1] | IC50 [2] | Ki [2] | IC50 [3] | IC50 (Estrogen receptor) | IC50 [4] | Ki [4] | IC50 [5] | IC50 [6] | IC50 [7] | IC50 [8] | Ki [8] | IC50 [9] | IC50 [10]

CNCCC=C1c2ccccc2CCc2ccccc21 [NORTRIPTYLINE]
1.83 µM: Ki ([8]; read-out: Ki)
Not Active: IC50 (Melanocortin receptor 4) | IC50 (Vasopressin V1a receptor) | IC50 [1] | Ki [1] | IC50 [2] | Ki [2] | IC50 (Cytochrome P450 3A4) | Ki (Cytochrome P450 3A4) | IC50 (Estrogen receptor) | IC50 [4] | Ki [4] | IC50 [5] | IC50 [6] | IC50 [7] | IC50 [9] | IC50 [10]
1.89 µM: IC50 ([8]; read-out: IC50)

OXALIPLATIN
Not Active: IC50 (Melanocortin receptor 4) | Ki (Melanocortin receptor 4) | IC50 (Vasopressin V1a receptor) | Ki (Vasopressin V1a receptor) | IC50 [1] | Ki [1] | IC50 [2] | Ki [2] | IC50 (Cytochrome P450 3A4) | Ki (Cytochrome P450 3A4) | IC50 [3] | Ki [3] | IC50 (Estrogen receptor) | Ki (Estrogen receptor) | IC50 [4] | Ki [4] | IC50 [5] | Ki [5] | IC50 [7] | Ki [7] | IC50 [8] | Ki [8] | IC50 [9] | Ki [9] | IC50 [10] | Ki [10]
